From the NIST ThermoML archive (doi:10.1021/je900387e)

Assay: xn = mol fraction of the nth substance listed
Settings: Liquid, Pycnometric method

CCCCBr [1-bromobutane] + O=C=O
Settings	mass density [kg/m3]
337.4 K, 10260 kPa, x1 = 0.0461	482
337.4 K, 10290 kPa, x1 = 0.0989	717
337.4 K, 10310 kPa, x1 = 0.1495	879
337.4 K, 10340 kPa, x1 = 0.0461	492
337.4 K, 10360 kPa, x1 = 0.0989	722
337.4 K, 10430 kPa, x1 = 0.0461	502
337.4 K, 10430 kPa, x1 = 0.1495	881
337.4 K, 10440 kPa, x1 = 0.0989	726
337.4 K, 10520 kPa, x1 = 0.0989	730
337.4 K, 10540 kPa, x1 = 0.0461	513
337.4 K, 10580 kPa, x1 = 0.1495	884
337.4 K, 10590 kPa, x1 = 0.0989	735
337.4 K, 10660 kPa, x1 = 0.0461	524
337.4 K, 10690 kPa, x1 = 0.0989	739
337.4 K, 10690 kPa, x1 = 0.1495	887
337.4 K, 10790 kPa, x1 = 0.0461	537
337.4 K, 10790 kPa, x1 = 0.0989	743
337.4 K, 10810 kPa, x1 = 0.1495	889
337.4 K, 10890 kPa, x1 = 0.0989	748
337.4 K, 10910 kPa, x1 = 0.0461	549
337.4 K, 10970 kPa, x1 = 0.1495	893
337.4 K, 10990 kPa, x1 = 0.0989	752
337.4 K, 11060 kPa, x1 = 0.0461	563
337.4 K, 11100 kPa, x1 = 0.1495	895
337.4 K, 11130 kPa, x1 = 0.0989	757
337.4 K, 11230 kPa, x1 = 0.0461	577
337.4 K, 11240 kPa, x1 = 0.0989	762
337.4 K, 11250 kPa, x1 = 0.1495	898
337.4 K, 11370 kPa, x1 = 0.0461	588
337.4 K, 11370 kPa, x1 = 0.0989	766
337.4 K, 11420 kPa, x1 = 0.1495	901
337.4 K, 11510 kPa, x1 = 0.0461	599
337.4 K, 11520 kPa, x1 = 0.0989	771
337.4 K, 11580 kPa, x1 = 0.1495	904
337.4 K, 11680 kPa, x1 = 0.0461	611
337.4 K, 11680 kPa, x1 = 0.0989	776
337.4 K, 11740 kPa, x1 = 0.1495	906
337.4 K, 11830 kPa, x1 = 0.0989	781
337.4 K, 11860 kPa, x1 = 0.0461	623
337.4 K, 11920 kPa, x1 = 0.1495	909
337.4 K, 12010 kPa, x1 = 0.0989	786
337.4 K, 12070 kPa, x1 = 0.1495	912
337.4 K, 12080 kPa, x1 = 0.0461	636
337.4 K, 12200 kPa, x1 = 0.0989	791
337.4 K, 12280 kPa, x1 = 0.1495	915
337.4 K, 12320 kPa, x1 = 0.0461	649
337.4 K, 12390 kPa, x1 = 0.0989	796
337.4 K, 12490 kPa, x1 = 0.1495	918
337.4 K, 12580 kPa, x1 = 0.0461	663
337.4 K, 12620 kPa, x1 = 0.0989	801
337.4 K, 12680 kPa, x1 = 0.1495	921
337.4 K, 12850 kPa, x1 = 0.0989	806
337.4 K, 12890 kPa, x1 = 0.1495	924
337.4 K, 12910 kPa, x1 = 0.0461	674
337.4 K, 13110 kPa, x1 = 0.0989	812
337.4 K, 13130 kPa, x1 = 0.1495	927
337.4 K, 13260 kPa, x1 = 0.0461	693
337.4 K, 13320 kPa, x1 = 0.1495	930
337.4 K, 13360 kPa, x1 = 0.0989	817
337.4 K, 13530 kPa, x1 = 0.0461	703
337.4 K, 13550 kPa, x1 = 0.1495	933
337.4 K, 13650 kPa, x1 = 0.0989	822
337.4 K, 13770 kPa, x1 = 0.1495	936
337.4 K, 13920 kPa, x1 = 0.0989	828
337.4 K, 14020 kPa, x1 = 0.1495	939
337.4 K, 14220 kPa, x1 = 0.0989	833
337.4 K, 14300 kPa, x1 = 0.1495	942
337.4 K, 14530 kPa, x1 = 0.1495	945
337.4 K, 14570 kPa, x1 = 0.0989	839
337.4 K, 14750 kPa, x1 = 0.1495	948
337.4 K, 14880 kPa, x1 = 0.0989	844
337.4 K, 15050 kPa, x1 = 0.1495	951
337.4 K, 15220 kPa, x1 = 0.0989	850
337.9 K, 9120 kPa, x1 = 0.0245	280
337.9 K, 9150 kPa, x1 = 0.0245	283
337.9 K, 9220 kPa, x1 = 0.0245	288
337.9 K, 9290 kPa, x1 = 0.0245	292
337.9 K, 9370 kPa, x1 = 0.0245	297
337.9 K, 9440 kPa, x1 = 0.0245	303
337.9 K, 9520 kPa, x1 = 0.0245	308
337.9 K, 9600 kPa, x1 = 0.0245	314
337.9 K, 9680 kPa, x1 = 0.0245	320
337.9 K, 9750 kPa, x1 = 0.0245	325
337.9 K, 9830 kPa, x1 = 0.0245	331
337.9 K, 9920 kPa, x1 = 0.0245	338
337.9 K, 10000 kPa, x1 = 0.0245	345
337.9 K, 10080 kPa, x1 = 0.0245	352
337.9 K, 10180 kPa, x1 = 0.0245	359
337.9 K, 10270 kPa, x1 = 0.0245	367
337.9 K, 10360 kPa, x1 = 0.0245	375
337.9 K, 10450 kPa, x1 = 0.0245	383
337.9 K, 10560 kPa, x1 = 0.0245	391
337.9 K, 10620 kPa, x1 = 0.0245	397
337.9 K, 10630 kPa, x1 = 0.0245	399
